Measurements published in patent US10329270B2, “Heteroaryl compounds as BTK inhibitors and uses thereof” (Merck Patent GmbH, priority 2013, dated 2019).
Like-named read-outs stand apart in the source and are kept apart here.

Target: T1, full-length human BTK (Homo sapiens, UniProt Q06187)
T1 construct: 2.5× stocks of full-length human BTK (08-080); purchased CarnaBio USA, Inc., Natick, Mass; 08-080
Test: Assay A: BTK IC50 Enzyme Assay (microfluidic off-chip mobility shift kinase assay)
Assay type: biochemical
Procedure: Assay A: BTK IC50 Enzyme Assay
The following describes a microfluidic, off-chip mobility shift kinase assay used to measure inherent potency of compounds against BTK enzyme. Compounds described by embodiments of the present invention were assayed using this protocol and the data from the same is recorded in Table 2 within the column labeled: “Time Dependent BTK Enzyme Assay IC50”.
Stopped reactions were monitored at −2 PSI, −3000 V/−700 V in a LabChip 3000 plate reader from Caliper Life Sciences, a PerkinElmer Company (Hopkinton, Mass.), and the activity was measured by off-chip mobility shift assay measuring the charge/mass difference between substrate and product resulting from peptide phosphorilation. IC50 and efficacy were determined by plotting log [Inhibitor] vs. % Activity in GeneData Screener (Basel, Switzerland). […] I<1 uM and II>1 uM.

[1] = full-length human BTK, kinKDR peptide substrate, incubated 90 min at 27 C, read-out: Assay A (Time Dependent BTK Enzyme Assay IC50)

T1 sequence (Q06187 whole entry): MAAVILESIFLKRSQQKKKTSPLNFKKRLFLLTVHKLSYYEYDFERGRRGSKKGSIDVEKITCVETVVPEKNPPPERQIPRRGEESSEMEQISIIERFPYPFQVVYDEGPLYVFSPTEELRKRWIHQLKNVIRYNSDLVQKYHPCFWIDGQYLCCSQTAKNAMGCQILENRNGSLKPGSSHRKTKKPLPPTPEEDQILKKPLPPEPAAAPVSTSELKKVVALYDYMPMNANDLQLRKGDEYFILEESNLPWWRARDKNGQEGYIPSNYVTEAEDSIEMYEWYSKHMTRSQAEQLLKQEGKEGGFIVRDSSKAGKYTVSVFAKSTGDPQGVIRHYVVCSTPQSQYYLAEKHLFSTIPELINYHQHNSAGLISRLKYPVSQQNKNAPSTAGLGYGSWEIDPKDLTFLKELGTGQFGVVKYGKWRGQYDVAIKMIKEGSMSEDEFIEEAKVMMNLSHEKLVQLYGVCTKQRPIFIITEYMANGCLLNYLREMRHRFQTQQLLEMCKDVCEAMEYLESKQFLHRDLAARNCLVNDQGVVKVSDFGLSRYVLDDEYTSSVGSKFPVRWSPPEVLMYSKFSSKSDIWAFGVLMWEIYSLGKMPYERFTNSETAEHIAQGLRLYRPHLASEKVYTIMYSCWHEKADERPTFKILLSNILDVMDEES

Row | SMILES | IC50 [1] [µM] | IC50 [µM]
1 | C=CC(=O)N1CCC(c2ccc(C(N)=O)c(Oc3ccc(Oc4ccc(C)cc4)cc3)n2)C1 (stereo not drawn) [Compound 81, 6-(1-acryloylpyrrolidin-3-yl)-2-(4-(p-tolyloxy)phenoxy)nicotinamide] | < 0.1 | 
2 | CC(C)=CC(=O)C1CCN(c2ccc(C(N)=O)c(Oc3ccc(Oc4ccccc4)cc3)n2)C1 (stereo not drawn) [Compound 93, 6-[3-(3-Methyl-but-2-enoyl)-pyrrolidin-1-yl]-2-(4-phenoxy-phenoxy)-nicotinamide] | 0.1 to 1 | 
3 | C=CC(=O)N[C@@H]1CCN(c2ccc(C(N)=O)c(N)n2)C1 [Compound 61, 6-((R)-3-Acryloylamino-pyrrolidin-1-yl)-2-amino-nicotinamide] | 1 to 5 | 
4 | C=CC(=O)N[C@H]1CCN(c2ccc(C(N)=O)c(Oc3ccc(C(=O)N4CCOCC4)cc3)n2)C1 [Compound 101, 6-((S)-3-Acryloylamino-pyrrolidin-1-yl)-2-[4-(morpholine-4-carbonyl)-phenoxy]-nicotinamide] | > 5 | 
5 | C=CC(=O)N[C@H]1CCN(c2cc(Oc3ccc(C(=O)Nc4ccccc4)cc3)c(C(N)=O)cn2)C1 [Compound 116, (S)-6-(3-acrylamidopyrrolidin-1-yl)-4-(4-(phenylcarbamoyl)phenoxy)nicotinamide] | 1 to 5 | 
6 | C=CC(=O)N1CCN(c2ncc(C(N)=O)c(Oc3ccc(Oc4ccccc4)cc3)n2)C(C)C1 (stereo not drawn) [Compound 218, 2-(4-acryloyl-2-methylpiperazin-1-yl)-4-(4-phenoxyphenoxy)pyrimidine-5-carboxamide] | < 0.1 | 
7 | C=CC(=O)N1CCN(c2ccc(C(N)=O)c(Nc3cccnc3)n2)CC1 [Compound 43] | < 0.1 | 
8 | N#CN1CCCC(Nc2ncc(C(N)=O)c(Oc3ccc(Oc4ccccc4)cc3)n2)C1 (stereo not drawn) [Compound 239, 2-[(1-cyanopiperidin-3-yl)amino]-4-(4-phenoxyphenoxy)pyrimidine-5-carboxamide] | 1 to 5 | 
9 | C/C=C/C(=O)N1CCC(Nc2cnc(Oc3ccc(Oc4ccccc4)cc3)c(C(N)=O)c2)C1 (stereo not drawn) [Compound 202, 5-[1-((E)-But-2-enoyl)-pyrrolidin-3-ylamino]-2-(4-phenoxy-phenoxy)-nicotinamide] | 1 to 5 | 
10 | CN(C)C/C=C/C(=O)N1CCC(Nc2ncc(C(N)=O)c(N)n2)C1 (stereo not drawn) [Compound 138, 4-Amino-2-[1-((E)-4-dimethylamino-but-2-enoyl)-pyrrolidin-3-ylamino]-pyrimidine-5-carboxylic acid amide] | > 5 | 
11 | C=CC(=O)N[C@H]1CCN(c2cc(Oc3ccc(Oc4ccc(C)cc4)cc3)c(C(N)=O)cn2)C1 [Compound 114, (S)-6-(3-acrylamidopyrrolidin-1-yl)-4-(4-(p-tolyloxy)phenoxy)nicotinamide] | 0.1 to 1 | 
12 | C=CC(=O)N1CCC(F)(CNc2ncc(C(N)=O)c(Oc3ccc(Oc4ccccc4)cc3)n2)CC1 [Compound 194, 2-(((1-acryloyl-4-fluoropiperidin-4-yl)methyl)amino)-4-(4-phenoxyphenoxy)pyrimidine-5-carboxamide] |  | 0.1 to 1
13 | C=CC(=O)N[C@H]1CCN(c2nc(Oc3ccc(Oc4ccccc4)cc3)c(C(N)=O)cc2F)C1 [Compound 2, 6-((S)-3-Acryloylamino-pyrrolidin-1-yl)-5-fluoro-2-(4-phenoxy-phenoxy)-nicotinamide] | 0.1 to 1 | 
14 | C=CC(=O)N1CCC(Nc2ncc(C(N)=O)c(N)n2)C1 (stereo not drawn) [Compound 141, 2-(1-Acryloyl-pyrrolidin-3-ylamino)-4-amino-pyrimidine-5-carboxylic acid amide] | 0.1 to 1 | 
15 | C=CC(=O)N[C@H]1CCN(c2ncc(C(N)=O)cc2-c2ccc(Oc3ccccc3)cc2)C1 [Compound 170, 6-((S)-3-Acryloylamino-pyrrolidin-1-yl)-5-(4-phenoxy-phenyl)-nicotinamide] | > 5 | 
16 | C=CC(=O)N1CCCN(c2ncc(C(N)=O)c(Oc3ccc(Oc4ccccc4)cc3)n2)CC1 [Compound 206, 2-(4-acryloyl-1,4-diazepan-1-yl)-4-(4-phenoxyphenoxy)pyrimidine-5-carboxamide] | 0.1 to 1 | 
17 | C=CC(=O)N1C[C@@H]2C[C@H]1CN2c1cnc(C(N)=O)c(Oc2ccc(Oc3ccccc3)cc2)n1 [Compound 135, 5-((1S,4S)-5-Acryloyl-2,5-diaza-bicyclo[2.2.1]hept-2-yl)-3-(4-phenoxy-phenoxy)-pyrazine-2-carboxylic acid amide] | 1 to 5 | 
18 | C=CC(=O)N1CCC(CNc2ncc(C(N)=O)c(Oc3ccc(Oc4ccccc4)cc3)n2)CC1 [Compound 209, 2-(((1-acryloylpiperidin-4-yl)methyl)amino)-4-(4-phenoxyphenoxy)pyrimidine-5-carboxamide] | 0.1 to 1 | 
19 | C=CC(=O)N1CCN(c2nc(N(C)c3cccc(C)c3)ccc2C(N)=O)CC1 [Compound 158, 2-(4-Acryloyl-piperazin-1-yl)-6-(methyl-m-tolyl-amino)-nicotinamide] | 0.1 to 1 | 
20 | C=CC(=O)N1CCN(c2ccc(C(N)=O)c(Nc3ccc(C)nc3)n2)CC1 [Compound 34] | < 0.1 | 
21 | C=CC(=O)N1CCC(Nc2cnc(Oc3ccc(Oc4cccc(F)c4)cc3)c(C(N)=O)c2)C1 (stereo not drawn) [Compound 253, 5-(1-Acryloyl-pyrrolidin-3-ylamino)-2-[4-(3-fluoro-phenoxy)-phenoxy]-nicotinamide] | < 0.1 | 
22 | C=CC(=O)NC1CCN(c2cnc(Oc3ccc(Oc4cccc(F)c4)cc3)c(C(N)=O)c2)C1 (stereo not drawn) [Compound 219, 5-(3-Acryloylamino-pyrrolidin-1-yl)-2-[4-(3-fluoro-phenoxy)-phenoxy]-nicotinamide] | 0.1 to 1 | 
23 | C=CC(=O)N1CCC(c2ncc(C(N)=O)c(Oc3ccc(Oc4ccccc4)cc3)n2)C1 (stereo not drawn) [Compound 150, 2-(1-Acryloyl-pyrrolidin-3-yl)-4-(4-phenoxy-phenoxy)-pyrimidine-5-carboxylic acid amide] | 0.1 to 1 | 
24 | C/C=C/C(=O)N1CCC(Nc2cnc(Oc3ccc(Oc4cccc(F)c4)cc3)c(C(N)=O)c2)CC1 [Compound 230, 5-[1-((E)-But-2-enoyl)-piperidin-4-ylamino]-2-[4-(3-fluoro-phenoxy)-phenoxy]-nicotinamide] | 1 to 5 | 
25 | C=CC(=O)NC1CCN(c2cnc(Oc3ccc(Oc4cccc(F)c4)cc3)c(C(N)=O)c2)CC1 [Compound 212, 4-Acryloylamino-6′-[4-(3-fluoro-phenoxy)-phenoxy]-3,4,5,6-tetrahydro-2H-[1,3′]bipyridinyl-5′-carboxylic acid amide] | 0.1 to 1 | 
26 | C=CC(=O)N[C@H]1CCN(c2ccc(C(N)=O)c(Nc3ccc(N4CCCC4)nc3)n2)C1 [Compound 41, 6-((S)-3-Acryloylamino-pyrrolidin-1-yl)-2-(6-pyrrolidin-1-yl-pyridin-3-ylamino)-nicotinamide] | < 0.1 | 
27 | C=CC(=O)N1CCCC(Nc2cnc(Oc3ccc(Oc4cccc(F)c4)cc3)c(C(N)=O)c2)C1 (stereo not drawn) [Compound 251] | 0.1 to 1 | 
28 | C=CC(=O)N1CC=C(c2cncc(C(N)=O)c2Nc2ccc(N3C[C@@H](C)O[C@@H](C)C3)nc2)CC1 [Compound 168, 1′-Acryloyl-4-[6-(cis-2,6-dimethyl-morpholin-4-yl)-pyridin-3-ylamino]-1′,2′,3′,6′-tetrahydro-[3,4′]bipyridinyl-5-carboxylic acid amide] | 1 to 5 | 
29 | C=CC(=O)N[C@H]1CCN(c2ccc(C(N)=O)c(Oc3cnn(Cc4ccccc4)c3)n2)C1 [Compound 97] | 1 to 5 | 
30 | N#CNC(=O)N1CCN(c2ccc(C(N)=O)c(Oc3ccc(Oc4ccccc4)cc3)n2)CC1 [Compound 237, 4-(5-carbamoyl-6-(4-phenoxyphenoxy)pyridin-2-yl)-N-cyanopiperazine-1-carboxamide] | 1 to 5 | 
